Reference: patent publication US20130225614A1, “4-AZOLYLAMINOQUINAZOLINE DERIVATIVES AND METHODS OF USE THEREOF” (Ambit Biosciences Corporation, priority 2010, published 2013)

Assays:
[1] = tested on: GM-CSFR/JAK2/STAT5 pathway; test: CSTF-1 cell-based reporter assay (beta-lactamase reporter, GM-CSF stimulated); conditions: Homo sapiens; csTF-1 cells, GM-CSF at 2 ng/mL, 4 hours; read-out: Cell Assay: CS TF-1 reporter assay IC50
Procedure: CSTF-1 cells are derived from the human erythroleukemia cell line that is growth dependent on GM-CSF and has an intact GM-CSFR/JAK2/STAT5 pathway. The cell line contains stably integrated beta-lactamase reporter gene under the control of the […] (irf 1) response element recognized by the activated transcription factor STATS. csTF-1 cells (Invitrogen K1219) were washed with assay media (97% OPTIMEM/0.5% dialyzed FBS/0.1 mM NEAA/1 mM Na pyr/P/S) and seeded in the same media at 5×10^5 cell/mL in T150 flask. After 16 hour incubation, cells were seeded at 2×10^5 cell/well in 50 μl volume, into Costar, clear bottom, 96-well assay plates. Serial dilutions of compounds were added to the plates with final DMSO concentration at 0.5% and GM-CSF at 2 ng/mL and the plates were then incubated at […] and 5% CO2 for 4 hours. The plates were brought to room temperature before adding Substrate Mixture according to manufacturer's protocol (Invitrogen, Catalog #K1085). The assay plates containing the substrate mixture were incubated in the dark at room temperature for 2 hours. Blue and green fluorescence was measured with excitation at 409 nm and emission at 460 nm (for blue) and excitation at 409 nm and emission at 530 nm (for green) using Spectra Max Gemini EM.

JAK2 = molecular target: T1, JAK2 (Homo sapiens, UniProt O60674); test: Competition binding assay, Kd against JAK2
T1 construct: made in house; host or cells: T7 phage display or HEK-293 cells (alternatives; not specified per kinase)
Procedure: (§1) Competition binding assays used herein were developed, validated and performed as described in Fabian et al., Nature Biotechnology 2005, 23, 329-336. Kinases were produced as fusions to T7 phage (See, Fabian et al. or WO04/015142) or alternatively, the kinases were expressed in HEK-293 cells and subsequently tagged with DNA for PCR detection (See, WO08/005,310). For the binding assays, streptavidin-coated magnetic beads were treated with biotinylated affinity ligands for 30 min at rt to generate affinity resins. The liganded beads were blocked with excess biotin and washed with blocking buffer (SeaBlock (Pierce), 1% BSA, 0.05% Tween 20, 1 mM DTT) to remove unbound ligand and to reduce non-specific binding. Binding reactions were assembled by combining kinase, liganded affinity beads, and test compounds in 1× binding buffer (20% SeaBlock, 0.17×PBS, 0.05% Tween 20, 6 mM DTT). Test compounds were prepared as 100× stocks in DMSO and rapidly diluted into the aqueous environment. DMSO was added to control assays lacking a test compound. Primary screen interactions were performed in polypropylene 384-well plates in a final volume of 34 μL, while Kd determinations were performed in polystyrene 96-well plates in a final volume of 135 μL. The assay plates were incubated at room temperature with shaking for 1 hour, long enough for binding reactions to reach equilibrium, and the affinity beads were washed extensively with wash buffer (1×PBS, 0.05% Tween 20) to remove unbound protein. The beads were then resuspended in elution buffer (1×PBS, 0.05% Tween 20, 2 μM non-biotinylated affinity ligand) and incubated at room temperature with shaking for 30 min. The kinase concentration in the eluates was measured by quantitative PCR. Each kinase was tested individually against each compound. Kds were determined using eleven serial threefold dilutions. A selectivity score, which is a quantitative measure of selectivity of a compound against a panel of enzymes, may be calculated for a compound by dividing the number of enzymes for which a compound meets a set criteria, (for example, a binding constant of 100 nM or less), by the total number of enzymes tested.

JAK3 = molecular target: T2, JAK3 (Homo sapiens, UniProt P52333); test: Competition binding assay, Kd against JAK3
T2 construct: made in house; host or cells: T7 phage display or HEK-293 cells (alternatives; not specified per kinase)
T2 sequence (P52333 1-1124): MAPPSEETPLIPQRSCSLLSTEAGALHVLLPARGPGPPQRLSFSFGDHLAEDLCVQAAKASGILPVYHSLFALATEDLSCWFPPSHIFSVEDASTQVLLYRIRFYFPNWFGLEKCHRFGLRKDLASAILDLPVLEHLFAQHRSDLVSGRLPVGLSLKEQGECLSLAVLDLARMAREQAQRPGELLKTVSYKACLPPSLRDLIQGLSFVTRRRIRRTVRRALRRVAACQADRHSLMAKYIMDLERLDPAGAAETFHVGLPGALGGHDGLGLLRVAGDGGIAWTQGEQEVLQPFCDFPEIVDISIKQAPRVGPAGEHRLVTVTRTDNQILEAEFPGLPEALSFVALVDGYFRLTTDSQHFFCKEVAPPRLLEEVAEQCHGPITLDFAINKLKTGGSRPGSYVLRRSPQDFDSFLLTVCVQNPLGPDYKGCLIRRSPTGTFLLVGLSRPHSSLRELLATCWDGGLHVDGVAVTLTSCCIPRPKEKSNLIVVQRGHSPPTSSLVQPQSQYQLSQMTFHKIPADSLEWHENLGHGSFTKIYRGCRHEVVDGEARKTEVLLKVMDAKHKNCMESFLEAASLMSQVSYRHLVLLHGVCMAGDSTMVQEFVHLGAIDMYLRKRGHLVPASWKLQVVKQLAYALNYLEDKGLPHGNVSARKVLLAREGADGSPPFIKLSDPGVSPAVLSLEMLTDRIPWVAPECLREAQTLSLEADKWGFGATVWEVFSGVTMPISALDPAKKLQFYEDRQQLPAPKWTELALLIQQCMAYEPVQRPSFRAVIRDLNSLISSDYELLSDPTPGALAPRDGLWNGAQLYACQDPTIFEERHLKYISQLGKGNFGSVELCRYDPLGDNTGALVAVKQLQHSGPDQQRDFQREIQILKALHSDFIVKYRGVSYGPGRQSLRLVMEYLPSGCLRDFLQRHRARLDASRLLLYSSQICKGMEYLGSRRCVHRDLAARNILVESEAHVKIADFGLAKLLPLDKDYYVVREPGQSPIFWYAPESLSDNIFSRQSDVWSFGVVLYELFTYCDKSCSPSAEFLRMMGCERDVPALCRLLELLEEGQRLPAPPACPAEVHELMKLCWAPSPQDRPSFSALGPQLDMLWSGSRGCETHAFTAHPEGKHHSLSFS
Procedure: as §1

[2] = tested on: distinct kinases tested excluding mutant variants, typically 359 or 386 kinases; test: Kinase selectivity in competition binding assays (S10 score; kinases within 100-fold of JAK2 Kd); conditions: compound at 10 μM; fraction of kinases with inhibition of 90% or greater
Procedure: as §1
In certain embodiments, the compounds provided herein bind to JAK2 kinase with higher specificity as compared to non-mutant and non-JAK family kinases. For certain compounds provided herein, binding constants for less than 10 non-mutant and non-JAK family kinases are within 100-fold of the binding constant for JAK2 kinase for compounds provided herein. For certain compounds provided herein, binding constants for less than 8 non-mutant and non-JAK family kinases are within 100-fold of the binding constant for JAK2 kinase for compounds provided herein. […]

T1 sequence (O60674 whole entry): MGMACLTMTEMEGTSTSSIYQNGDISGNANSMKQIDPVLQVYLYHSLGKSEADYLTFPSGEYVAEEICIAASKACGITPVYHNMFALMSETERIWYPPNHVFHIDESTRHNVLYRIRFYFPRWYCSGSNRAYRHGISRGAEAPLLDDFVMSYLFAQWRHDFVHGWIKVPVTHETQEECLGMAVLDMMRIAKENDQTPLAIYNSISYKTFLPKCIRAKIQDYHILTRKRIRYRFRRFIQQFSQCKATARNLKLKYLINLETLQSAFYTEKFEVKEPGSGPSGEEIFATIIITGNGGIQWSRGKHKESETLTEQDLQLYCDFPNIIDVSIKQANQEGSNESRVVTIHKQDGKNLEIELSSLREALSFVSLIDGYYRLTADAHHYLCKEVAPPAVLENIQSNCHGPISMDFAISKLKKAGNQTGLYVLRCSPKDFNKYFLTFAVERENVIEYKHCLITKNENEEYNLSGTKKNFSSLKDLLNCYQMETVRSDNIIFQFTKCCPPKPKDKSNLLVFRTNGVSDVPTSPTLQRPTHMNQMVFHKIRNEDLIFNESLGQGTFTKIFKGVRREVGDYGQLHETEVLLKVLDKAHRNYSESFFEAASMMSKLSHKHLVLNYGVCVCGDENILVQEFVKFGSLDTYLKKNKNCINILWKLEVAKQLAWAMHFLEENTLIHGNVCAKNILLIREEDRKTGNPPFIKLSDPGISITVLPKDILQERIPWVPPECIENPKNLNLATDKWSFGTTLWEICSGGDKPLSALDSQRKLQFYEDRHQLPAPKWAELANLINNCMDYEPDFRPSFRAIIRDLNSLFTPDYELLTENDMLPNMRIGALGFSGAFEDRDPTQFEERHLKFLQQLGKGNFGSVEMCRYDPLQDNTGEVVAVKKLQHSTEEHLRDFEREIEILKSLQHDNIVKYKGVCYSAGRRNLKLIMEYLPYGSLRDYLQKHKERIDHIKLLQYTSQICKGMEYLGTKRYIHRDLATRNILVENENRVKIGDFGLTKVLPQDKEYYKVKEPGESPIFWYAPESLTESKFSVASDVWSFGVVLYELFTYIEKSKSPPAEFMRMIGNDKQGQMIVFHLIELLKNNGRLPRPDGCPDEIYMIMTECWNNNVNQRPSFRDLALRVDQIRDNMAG

| SMILES | IC50 [1] [nM] | Kd (JAK2) [nM] | Kd (JAK3) [nM] | S-Score: S(10) at 10 μM [2] |
| --- | --- | --- | --- | --- |
| Cc1cnc(Nc2nc(C(O)c3ccc(F)cc3)nc3ccccc23)s1 (racemic) [Example 5, (R,S)-(4-fluorophenyl)(4-(5-methylthiazol-2-ylamino)quinazolin-2-yl)methanol] | > 500 | ≤ 10 | > 100 | A (A ≦ 0.3) |
| OC(c1ccc(F)cc1)c1nc(Nc2cscn2)c2ccccc2n1 (racemic) [Example 4, (R,S)-(4-fluorophenyl)(4-(thiazol-4-ylamino)quinazolin-2-yl)methanol] | > 500 | 10 to 50 | > 100 | A (A ≦ 0.3) |
| Cn1cnc(Nc2nc(C(O)c3ccc(F)cc3)nc3ccccc23)c1 (racemic) [Example 2, (R,S)-(4-fluorophenyl)(4-(1-methyl-1H-imidazol-4-ylamino)quinazolin-2-yl)methanol] | 100 to 500 | ≤ 10 | 10 to 100 | A (A ≦ 0.3) |
| OC(c1ccc(F)cc1)c1nc(Nc2c[nH]cn2)c2ccccc2n1 (racemic) [Example 3, (R,S)-(4-(1H-imidazol-4-ylamino)quinazolin-2-yl)(4-fluorophenyl)methanol] | > 500 | 10 to 50 | > 100 | A (A ≦ 0.3) |
